Results published in USRE38825E1, “Glyphosate tolerant plants” (Monsanto Technology LLC, priority 1990, dated 2005).
Like-named read-outs stand apart in the source and are kept apart here.

Assays:
[1] = tested on: glyphosate oxidoreductase; assay: Glyphosate oxidoreductase activity in isolated chloroplasts from transgenic tobacco; assay type: biochemical, Nicotiana tabacum; conditions: substrate 50 mM; 30 minute assays; without ubiquinone; chloroplasts of plants #22844, 22854, 22886, 22887
most plant species [2] = conditions: in vivo; cited from earlier work
most plant species [3] = conditions: Franz, 1985; cited from earlier work
[4] = tested on: glyphosate oxido-reductase from LBAA; assay: Glyphosate oxidoreductase reaction with substrates; assay type: biochemical; conditions: oxidation to glycine and glyoxylate
Excerpt: The enzyme glyphosate oxidoreductase catalyzes the cleavage of the C-N bond of glyphosate yielding aminomethyl phosphonate (AMPA) and glyoxylate as the reaction products. Under aerobic conditions, oxygen is utilized as a cosubstrate for the reaction. Other electron carriers such as phenazine methosulfate and ubiquinone stimulate the reaction under aerobic conditions. In the absence of oxygen, these compounds act as electron acceptors.
The enzymatic reaction can be assayed by oxygen uptake using an oxygen electrode. […] This enzyme has a stoichiometry of two moles of glyphosate oxidized per mole of oxygen consumed and produces two moles each of AMPA and glyoxylate as reaction products.
In addition to glyphosate, glyphosate oxido-reductase from LBAA oxidizes iminodiacetic acid (IDA) to glycine and glyoxylate.

[5] = biological target: LBAA glyphosate oxidoreductase variant ARG 334 (His334 to Arg) (Ochrobactrum sp. G-1, UniProt D2KI28, H334R/S2A); assay: Kinetic analysis of glyphosate oxidoreductase variant ARG 334 (site-directed mutagenesis); assay type: biochemical, bacterial isolate LBAA (Pseudomonas strain LBAA)
[6] = biological target: LBAA glyphosate oxidoreductase variant v.247 (v1v2v3: GLY84, ARG153, ARG334), SEQ ID NO:18 (Ochrobactrum sp. G-1, UniProt D2KI28, H334R/K153R/S2A/S84G); assay: Kinetic analysis of glyphosate oxidoreductase variant v.247; assay type: biochemical, bacterial isolate LBAA (Pseudomonas strain LBAA); conditions: v.247
Description: The mutagenesis procedure used was that of Mn++-poisoned PCR and the template was a linearized glyphosate oxidoreductase gene plasmid containing the synthetic glyphosate oxidoreductase gene (SEQ ID NO:8). The oligonucleotide primers used were homologous to regions in the vector and flanking the glyphosate oxidoreductase gene. The PCR conditions employed were as follows: 1 minute at 94° C., 2 minutes at 55° C., and 3 minutes at 72° C. and with 35 cycles. A 5:1 ratio of dCTP+dGTP+TTP to dATP was used. The reactions contained MnCl2 at 125, 250, 375, or 500 μM. After the reaction, the amplified product was recloned into a vector containing a weak E. coli promoter. This vector was a pBR327 derivative containing the araBAD promoter and suitable cloning sites. One hundred colonies from this cloning step were then screened in E. coli GB993 for improved glyphosate tolerance and utilization phenotypes in media composed of MOPS minimal medium with glyphosate and Pi or with glyphosate alone, respectively. Growth rates were determined by measuring A550 over a 96 hour period. […] The glyphosate oxidoreductase gene was recloned into the expression vector portion and this phenotype verified. All kinetic analysis was performed on crude E. coli lysates. Putative glyphosate oxidoreductase variant proteins were overexpressed after subcloning the NcoI/HindIII variant glyphosate oxidoreductase gene into PrecA-gene10L expression vector. For overexpression in PrecA-gene10L constructs, GB993 cells containing the vector were induced at a Klett=110-120 in M9 minimal medium with 50 μg/ml nalidixic acid and allowed to grow for 2.5 hours at 37° C. with vigorous shaking. Cells were harvested by centrifugation at 4000 g, 5 minutes at 4° C., and resuspend in 100 mM Tris-HCl, pH 7.1, 1 mM EDTA, 35 mM KCl, 20% glycerol, and 1 mM benzamidine at 3 ml/g cell pellet. Lysates were prepared by breaking the cells in a French press, twice, at 1000 psi. Insoluble debris was removed by centrifugation at 12000 g, 15 minutes at 4° C., and the supernatant was de-salted by passing over a PD-10 column (Sephadex G-25, Pharmacia). The void volume fraction was used as the source of enzyme for kinetic analysis. Protein concentrations were determined using the Bio-Rad protein dye-binding assay. Time and enzyme concentration courses were performed to determine linear ranges. […] Ten minutes was determined to be the optimal time for the enzyme assay using 10 μg lysate. After 10 minutes at 30° C. with shaking, 0.25 ml dinitrophenylhydrazine (DNPH) reagent (0.5 mg/ml in 0.5M HCl) was added and the reaction was allowed to proceed for an additional 5 minutes at 30° C. with shaking. A 1.5M NaOH solution (400 μl) was then added to the assay mix, and the reaction was continued for 5 minutes at 30° C. with shaking. Enzyme activity was determined from the amount of glyoxylate-DNPH adduct formed by measuring A520 against a standard of glyoxylate. Enzyme assays are performed in duplicate on at least two different single colony isolates of a putative glyphosate oxidoreductase variant. To determine Km and Vmax, enzyme assays were performed over a (0.2-2.0)×Km range of glyphosate concentrations. The Km and Vmax were determined from Lineweaver Burk, Eadie-Hofstee and hyperbolic kinetic plots. Vmax was estimated after determining the amount of immunoreactive glyphosate oxidoreductase protein in lysates by immunoblot analysis as described below. Immunoblot analysis was performed following SDS-PAGE and transfer of protein from the gel to nitrocellulose at 500 mA in a Hoeffer transfer apparatus in 25 mM Tris-HCl, 192 mM glycine containing 0.1% SDS and 25% methanol for 1-2 hours. After transfer, the nitrocellulose was incubated with 50 mM Tris-HCl, pH7.5, 0.9% NaCl, 0.01% Tween 20, 0.02% NaN3 containing 2% bovine serum albumin at room temperature with shaking for at least 30 minutes. […]

[7] = Kinetic analysis of glyphosate oxidoreductase variants in crude E. coli lysates (glyoxylate-DNPH assay), substrate glyphosate; assay type: biochemical; conditions: 25 mM glyphosate
Excerpt: Using this PCR approach, glyphosate oxidoreductase genes from a number of sources have been isolated. The presence of the glyphosate oxidoreductase activity was confirmed by cloning the glyphosate oxidoreductase gene from chromosomal DNA prepared from Pseudomonas sp. strain LBr (Jacob et al., 1988) and using primers homologous to the N- and C-termini of the LBAA glyphosate oxidoreductase gene and containing the following suitable restriction cloning sites: 5′-[…]-3′ (SEQ ID NO:13) and 5′-[…]-3′ (SEQ ID NO:14). Cyclotherm parameters used for these PCR reactions is as follows: • Denature at 94° C. for 1 minute; • Anneal at 60° C. for 2 minutes; • Polymerize at 72° C. for 3 minutes, • 30 cycles, no autoextension, linked to 4° C. incubation. […]
A population of bacteria was isolated from a fixed-bed immobilized cell column, which employed Mannville R-635 diatomaceous earth beads, by plating on Tryptone Soy Agar (Difco), containing cylcoheximide at 100 ug/ml, and incubating at 28° C. […] The glyphosate oxidoreductase activity was assayed and the Km for glyphosate also determined:
The mutagenesis procedure used was that of Mn++-poisoned PCR and the template was a linearized glyphosate oxidoreductase gene plasmid containing the synthetic glyphosate oxidoreductase gene (SEQ ID NO:8). […] Growth rates were determined by measuring A550 over a 96 hour period. […]

O=C(O)CNCP(=O)(O)O [Glyphosate, N-phosphonomethyl-glycine]
Specific Activity [1]: 92 nmol/min/mg

NCP(=O)(O)O [AMPA, aminomethylphosphonate]
phytotoxicity (most plant species [2]): much less phytotoxic than glyphosate | phytotoxicity (most plant species [3]): much less phytotoxic than glyphosate

O=C(O)CNCC(=O)O [Iminodiacetic acid, iminodiacetic acid]
Specific Activity [1]: 179 nmol/min/mg | rate of the reaction [4]: significantly faster than with glyphosate

O=C(O)CNCC(=O)O [IDA, iminodiacetic acid]
VmKm (IDA) [5]: 1.2 | app Vm (IDA) [5]: 0.6 U/mg | Km ([5]; read-out: spp Km (IDA)): 500 µM | Km ([6]; read-out: spp Km (IDA), pH 7.4, 30° C., crude E. coli lysate): 700 µM | VmKm (IDA) [6]: 1.0 | app Vm (IDA) ([6]; pH 7.4, 30° C.): 0.7 U/mg

B1: v.247: glyphosate oxidoreductase variant (SEQ ID NO:18); GLY84, ARG153, ARG334 (protein)
chain: MAENHKKVGIAGAGIVGVCTALMLQRRGFKVTLIDPNPPGEGASFGNAGCFNGSSVVPMSMPGNLTSVPKWLLDPMGPLSIRFGYFPTIMPWLIRFLLAGRPNKVKEQAKALRNLIKSTVPLIKSLAEEADASHLIRHEGHLTVYRGEADFARDRGGWELRRLNGVRTQILSADALRDFDPNLSHAFTKGILIEENGHTINPQGLVTLLFRRFIANGGEFVSARVIGFETEGRALKGITTTNGVLAVDAAVVAAGAHSKSLANSLGDDIPLDTERGYHIVIANPEAAPRIPTTDASGKFIATPMEMGLRVAGTVEFAGLTAAPNWKRAHVLYTRARKLLPALAPASSEERYSKWMGFRPSIPDSLPVIGRATRTPDVIYAFGHGHLGMTGAPMTATLVSELLAGEKTSIDISPFAPNRFGIGKSKQTGPAS
fold higher specific activity for glyphosate oxidoreductase [7]: 3-4 fold
